In patent publication US20050182025A1, “Amidinylphenyl compounds and their use as fungicides” (priority 2002, published 2005):

Key:
Assay type in all cases: in vivo
Puccinia recondita = test: Test B: preventive spray on wheat seedlings, wheat leaf rust, disease rating; conditions: wheat seedlings sprayed to run-off, inoculated the following day with Puccinia recondita, 24 h saturated atmosphere then 6 days at 20° C.; test concentration not given
Text: (§1) General protocol for preparing test suspensions: Test compounds were first dissolved in acetone in an amount equal to 3% of the final volume and then suspended at the desired concentration (in ppm) in acetone and purified water (50/50 mix) containing 250 ppm of the surfactant Trem® 014 (polyhydric alcohol esters). The resulting test suspensions were then used in the following tests. Spraying a 200 ppm test suspension to the point of run-off on the test plants was the equivalent of a rate of 500 g/ha. The test suspension was sprayed to the point of run-off on wheat seedlings. The following day the seedlings were inoculated with a spore suspension of Puccinia recondita (the causal agent of wheat leaf rust) and incubated in a saturated atmosphere at 20° C. for 24 h, and then moved to a growth chamber at 20° C. for 6 days, after which disease ratings were made. Results for Tests A-C are given in Table A. In the table, a rating of 100 indicates 100% disease control and a rating of 0 indicates no disease control (relative to the controls). A dash (-) indicates no test results.

[1] = test system: Erysiphe graminis f. sp. tritici; test: Test A: preventive spray on wheat seedlings, wheat powdery mildew, disease rating; conditions: wheat seedlings sprayed to run-off, inoculated the following day with Erysiphe graminis f. sp. tritici, rated after 7 days at 20° C.; test concentration not given
Text: as §1, with “spore dust” for “spore suspension”, “of Erysiphe graminis f. sp. tritici,” for “of Puccinia recondita”, “wheat powdery mildew)” for “wheat leaf rust)”, “in” for “in a saturated atmosphere at 20° C. for 24 h, and then moved to”, “for 7” for “for 6”

Septoria nodorum = test: Test C: preventive spray on wheat seedlings, Septoria glume blotch, disease rating; conditions: wheat seedlings sprayed to run-off, inoculated the following day with Septoria nodorum, 48 h saturated atmosphere then 9 days at 20° C.; test concentration not given
Text: as §1, with “Septoria nodorum” for “Puccinia recondita”, “Septoria glume blotch)” for “wheat leaf rust)”, “48” for “24”, “9” for “6”

In the case of `CC(C)=CCOc1cc(C)c(N=CN(C)C)cc1C` [Compound 1, N′-[2,5-Dimethyl-4-[(3-methyl-2-butenyl)-oxy]phenyl]-N,N-dimethylmethanimidamide], the “Test B disease control rating (100 = 100% disease control, 0 = no disease control relative to the controls)” value (Puccinia recondita) is reported as 100%, the “Test A disease control rating (100 = 100% disease control, 0 = no disease control relative to the controls)” value [1] is reported as 32% and the “Test C disease control rating (100 = 100% disease control, 0 = no disease control relative to the controls)” value (Septoria nodorum) is reported as 92%.
`CC(C)=CCCC(C)=CCOc1cc(C)c(N=CN(C)C)cc1C` [Compound 2] was tested, and the “Test B disease control rating (100 = 100% disease control, 0 = no disease control relative to the controls)” value (Puccinia recondita) was 100%, the “Test A disease control rating (100 = 100% disease control, 0 = no disease control relative to the controls)” value [1] was 95% and the “Test C disease control rating (100 = 100% disease control, 0 = no disease control relative to the controls)” value (Septoria nodorum) was 36%.
In the case of `CC(C)=CCCC(C)=CCCC(C)=CCOc1cc(C)c(N=CN(C)C)cc1C` [Compound 3], the “Test B disease control rating (100 = 100% disease control, 0 = no disease control relative to the controls)” value (Puccinia recondita) is reported as 87%, the “Test A disease control rating (100 = 100% disease control, 0 = no disease control relative to the controls)” value [1] is reported as 0% and the “Test C disease control rating (100 = 100% disease control, 0 = no disease control relative to the controls)” value (Septoria nodorum) is reported as 0%.
With `Cc1cc(OCC(=O)C(C)(C)C)c(C)cc1N=CN(C)C` [Compound 4] the “Test B disease control rating (100 = 100% disease control, 0 = no disease control relative to the controls)” value (Puccinia recondita) was 92%, the “Test A disease control rating (100 = 100% disease control, 0 = no disease control relative to the controls)” value [1] was 0% and the “Test C disease control rating (100 = 100% disease control, 0 = no disease control relative to the controls)” value (Septoria nodorum) was 0%.
`C=CCCCCOc1cc(C)c(N=CN(C)C)cc1C` [Compound 5] was tested, and the “Test B disease control rating (100 = 100% disease control, 0 = no disease control relative to the controls)” value (Puccinia recondita) was 100%, the “Test A disease control rating (100 = 100% disease control, 0 = no disease control relative to the controls)” value [1] was 0% and the “Test C disease control rating (100 = 100% disease control, 0 = no disease control relative to the controls)” value (Septoria nodorum) was 89%.
For `C=CCCCOc1cc(C)c(N=CN(C)C)cc1C` [Compound 6], the “Test B disease control rating (100 = 100% disease control, 0 = no disease control relative to the controls)” value (Puccinia recondita) was 100%, the “Test A disease control rating (100 = 100% disease control, 0 = no disease control relative to the controls)” value [1] was 0% and the “Test C disease control rating (100 = 100% disease control, 0 = no disease control relative to the controls)” value (Septoria nodorum) was 60%.
With `COC(CCCCOc1cc(C)c(N=CN(C)C)cc1C)(OC)OC` [Compound 7] the “Test B disease control rating (100 = 100% disease control, 0 = no disease control relative to the controls)” value (Puccinia recondita) was 0%, the “Test A disease control rating (100 = 100% disease control, 0 = no disease control relative to the controls)” value [1] was 0% and the “Test C disease control rating (100 = 100% disease control, 0 = no disease control relative to the controls)” value (Septoria nodorum) was 0%.
With `Cc1cc(OCCC(C)C)c(C)cc1N=CN(C)C` [Compound 8] the “Test B disease control rating (100 = 100% disease control, 0 = no disease control relative to the controls)” value (Puccinia recondita) was 100%, the “Test A disease control rating (100 = 100% disease control, 0 = no disease control relative to the controls)” value [1] was 97% and the “Test C disease control rating (100 = 100% disease control, 0 = no disease control relative to the controls)” value (Septoria nodorum) was 98%.
`C=C(CCCOc1cc(C)c(N=CN(C)C)cc1C)C(C)C` [Compound 9] was tested, and the “Test B disease control rating (100 = 100% disease control, 0 = no disease control relative to the controls)” value (Puccinia recondita) was 100%, the “Test A disease control rating (100 = 100% disease control, 0 = no disease control relative to the controls)” value [1] was 98% and the “Test C disease control rating (100 = 100% disease control, 0 = no disease control relative to the controls)” value (Septoria nodorum) was 97%.
With `Cc1cc(OCCC(C)CCCC(C)C)c(C)cc1N=CN(C)C` (stereo not drawn) [Compound 10] the “Test B disease control rating (100 = 100% disease control, 0 = no disease control relative to the controls)” value (Puccinia recondita) was 100%, the “Test A disease control rating (100 = 100% disease control, 0 = no disease control relative to the controls)” value [1] was 97% and the “Test C disease control rating (100 = 100% disease control, 0 = no disease control relative to the controls)” value (Septoria nodorum) was 0%.
For `Cc1cc(OCCC(C)CC(C)(C)C)c(C)cc1N=CN(C)C` (stereo not drawn) [Compound 11], the “Test B disease control rating (100 = 100% disease control, 0 = no disease control relative to the controls)” value (Puccinia recondita) was 100%, the “Test A disease control rating (100 = 100% disease control, 0 = no disease control relative to the controls)” value [1] was 97% and the “Test C disease control rating (100 = 100% disease control, 0 = no disease control relative to the controls)” value (Septoria nodorum) was 100%.
In the case of `Cc1cc(OCCC(C)(C)C)c(C)cc1N=CN(C)C` [Compound 12], the “Test B disease control rating (100 = 100% disease control, 0 = no disease control relative to the controls)” value (Puccinia recondita) is reported as 100%, the “Test A disease control rating (100 = 100% disease control, 0 = no disease control relative to the controls)” value [1] is reported as 97% and the “Test C disease control rating (100 = 100% disease control, 0 = no disease control relative to the controls)” value (Septoria nodorum) is reported as 80%.
`Cc1cc(OCCCC(C)C)c(C)cc1N=CN(C)C` [Compound 13, N′-[2,5-Dimethyl-4-[(4-methylpentyl)oxy]-phenyl]-N,N-dimethylmethanimidamide] was tested, and the “Test B disease control rating (100 = 100% disease control, 0 = no disease control relative to the controls)” value (Puccinia recondita) was 100%, the “Test A disease control rating (100 = 100% disease control, 0 = no disease control relative to the controls)” value [1] was 97% and the “Test C disease control rating (100 = 100% disease control, 0 = no disease control relative to the controls)” value (Septoria nodorum) was 100%.
In the case of `CC(C)=CCC[C@H](C)CCOc1cc(C)c(N=CN(C)C)cc1C` [Compound 14], the “Test B disease control rating (100 = 100% disease control, 0 = no disease control relative to the controls)” value (Puccinia recondita) is reported as 100%, the “Test A disease control rating (100 = 100% disease control, 0 = no disease control relative to the controls)” value [1] is reported as 90% and the “Test C disease control rating (100 = 100% disease control, 0 = no disease control relative to the controls)” value (Septoria nodorum) is reported as 0%.
`CC(C)=CCC[C@@H](C)CCOc1cc(C)c(N=CN(C)C)cc1C` [Compound 15] was tested, and the “Test B disease control rating (100 = 100% disease control, 0 = no disease control relative to the controls)” value (Puccinia recondita) was 100%, the “Test A disease control rating (100 = 100% disease control, 0 = no disease control relative to the controls)” value [1] was 94% and the “Test C disease control rating (100 = 100% disease control, 0 = no disease control relative to the controls)” value (Septoria nodorum) was 0%.
For `Cc1cc(OCCCCCl)c(C)cc1N=CN(C)C` [Compound 16], the “Test B disease control rating (100 = 100% disease control, 0 = no disease control relative to the controls)” value (Puccinia recondita) was 100%, the “Test A disease control rating (100 = 100% disease control, 0 = no disease control relative to the controls)” value [1] was 88% and the “Test C disease control rating (100 = 100% disease control, 0 = no disease control relative to the controls)” value (Septoria nodorum) was 97%.
With `Cc1cc(OCCCCCCl)c(C)cc1N=CN(C)C` [Compound 17] the “Test B disease control rating (100 = 100% disease control, 0 = no disease control relative to the controls)” value (Puccinia recondita) was 100%, the “Test A disease control rating (100 = 100% disease control, 0 = no disease control relative to the controls)” value [1] was 92% and the “Test C disease control rating (100 = 100% disease control, 0 = no disease control relative to the controls)” value (Septoria nodorum) was 100%.
`CCCCC(C)Oc1cc(C)c(N=CN(C)C)cc1C` (stereo not drawn) [Compound 18] was tested, and the “Test B disease control rating (100 = 100% disease control, 0 = no disease control relative to the controls)” value (Puccinia recondita) was 100%, the “Test A disease control rating (100 = 100% disease control, 0 = no disease control relative to the controls)” value [1] was 98% and the “Test C disease control rating (100 = 100% disease control, 0 = no disease control relative to the controls)” value (Septoria nodorum) was 98%.
`CCCCCOc1cc(C)c(N=CN(C)C)cc1C` [Compound 19] was tested, and the “Test B disease control rating (100 = 100% disease control, 0 = no disease control relative to the controls)” value (Puccinia recondita) was 100%, the “Test A disease control rating (100 = 100% disease control, 0 = no disease control relative to the controls)” value [1] was 96% and the “Test C disease control rating (100 = 100% disease control, 0 = no disease control relative to the controls)” value (Septoria nodorum) was 100%.
With `CCCCCCOc1cc(C)c(N=CN(C)C)cc1C` [Compound 20] the “Test B disease control rating (100 = 100% disease control, 0 = no disease control relative to the controls)” value (Puccinia recondita) was 100%, the “Test A disease control rating (100 = 100% disease control, 0 = no disease control relative to the controls)” value [1] was 96% and the “Test C disease control rating (100 = 100% disease control, 0 = no disease control relative to the controls)” value (Septoria nodorum) was 99%.
With `CCCCCCCOc1cc(C)c(N=CN(C)C)cc1C` [Compound 21] the “Test B disease control rating (100 = 100% disease control, 0 = no disease control relative to the controls)” value (Puccinia recondita) was 100%, the “Test A disease control rating (100 = 100% disease control, 0 = no disease control relative to the controls)” value [1] was 98% and the “Test C disease control rating (100 = 100% disease control, 0 = no disease control relative to the controls)” value (Septoria nodorum) was 96%.
For `CCCCCCCCOc1cc(C)c(N=CN(C)C)cc1C` [Compound 22], the “Test B disease control rating (100 = 100% disease control, 0 = no disease control relative to the controls)” value (Puccinia recondita) was 100%, the “Test A disease control rating (100 = 100% disease control, 0 = no disease control relative to the controls)” value [1] was 98% and the “Test C disease control rating (100 = 100% disease control, 0 = no disease control relative to the controls)” value (Septoria nodorum) was 88%.
With `CCCCCCCCCOc1cc(C)c(N=CN(C)C)cc1C` [Compound 23] the “Test B disease control rating (100 = 100% disease control, 0 = no disease control relative to the controls)” value (Puccinia recondita) was 98%, the “Test A disease control rating (100 = 100% disease control, 0 = no disease control relative to the controls)” value [1] was 97% and the “Test C disease control rating (100 = 100% disease control, 0 = no disease control relative to the controls)” value (Septoria nodorum) was 13%.
`CCCCCCCCCCOc1cc(C)c(N=CN(C)C)cc1C` [Compound 24] was tested, and the “Test B disease control rating (100 = 100% disease control, 0 = no disease control relative to the controls)” value (Puccinia recondita) was 23%, the “Test A disease control rating (100 = 100% disease control, 0 = no disease control relative to the controls)” value [1] was 86% and the “Test C disease control rating (100 = 100% disease control, 0 = no disease control relative to the controls)” value (Septoria nodorum) was 0%.
